Tests used:
Homo sapiens [1] = assay: Toxicity in human assessed as changes in continuous telemetry monitoring at 50 to 200 mg administered as single dose; format: organism-based; details: in vivo
[2] = AUC (0 to infinity) in human at 100 mg administered with fat meal every 12 hrs for 8 days measured on day 1; format: ADME, organism-based; set-up: dose 100 mg, time infinity; details: plasma
Homo sapiens [3] = assay: Toxicity in human assessed as changes in vital signs at 50 to 200 mg administered as single dose; format: organism-based; details: in vivo
Rattus norvegicus = assay: Clearance in iv dosed rat assessed as liver blood flow; format: ADME, organism-based; details: in vivo
[4] = Tmax in human at 50 mg administered with fat meal every 12 hrs for 8 days measured on day 8; format: ADME, organism-based; details: in vivo
[5] = Tmax in fasted human at 100 mg administered as single dose; format: ADME, organism-based; details: in vivo
[6] = Cmax in human at 200 mg administered with fat meal every 12 hrs for 8 days measured on day 8; format: ADME, organism-based; set-up: dose 200 mg; details: in vivo
[7] = Tmax in fasted human at 50 mg administered as single dose; format: ADME, organism-based; details: in vivo
[8] = Terminal elimination half life in human at 400 mg administered with fat meal as single dose; format: ADME, organism-based; details: in vivo, read-out: beta t1/2 (converted)
[9] = Tmax in human at 50 mg administered with fat meal every 12 hrs for 8 days measured on day 1; format: ADME, organism-based; details: in vivo
[10] = Tmax in human at 400 mg administered with fat meal daily for 8 days measured on day 8; format: ADME, organism-based; details: in vivo
Homo sapiens [11] = assay: Toxicity in human assessed as headache at 50 mg administered every 12 hrs for 8 days; format: organism-based; details: in vivo
[12] = AUC (0 to infinity) in human at 400 mg administered with fat meal as single dose; format: ADME, organism-based; set-up: dose 400 mg, time infinity; details: plasma
[13] = test system: Human immunodeficiency virus 1; assay: Antiviral activity against HIV1 BaL in peripheral blood lymphocytes in presence of 100% human serum; format: functional, organism-based; details: Human immunodeficiency virus 1, BaL
[14] = AUC (0 to infinity) in human at 50 mg administered with fat meal every 12 hrs for 8 days measured on day 1; format: ADME, organism-based; set-up: dose 50 mg, time infinity; details: plasma
[15] = Terminal elimination half life in human at 100 mg administered with fat meal every 12 hrs for 8 days measured on day 8; format: ADME, organism-based; details: in vivo, read-out: beta t1/2 (converted)
[16] = AUC (0 to 12 hrs) in human at 100 mg administered with fat meal every 12 hrs for 8 days measured on day 8; format: ADME, organism-based; set-up: time < 12 hr, dose 100 mg; details: plasma
[17] = Cmax in human at 200 mg administered with fat meal every 12 hrs for 8 days measured on day 1; format: ADME, organism-based; set-up: dose 200 mg; details: in vivo
Homo sapiens [18] = assay: Toxicity in human assessed as increase in LDL cholesterol level at 50 to 400 mg after sequential repeated dose administration for 8 days relative to basal level; format: organism-based; details: in vivo, 192 h
Canis familiaris = assay: Clearance in iv dosed dog assessed as liver blood flow; format: ADME, organism-based, Canis lupus familiaris; details: in vivo
[19] = Cmax in human at 400 mg administered with fat meal daily for 8 days measured on day 1; format: ADME, organism-based; set-up: dose 400 mg; details: in vivo
[20] = Tmax in fasted human at 200 mg administered with fat meal as single dose; format: ADME, organism-based; details: in vivo
Rhesus monkey = assay: Clearance in iv dosed monkey assessed as liver blood flow; format: ADME, organism-based, Macaca mulatta; details: in vivo
[21] = AUC (0 to 24 hrs) in human at 400 mg administered with fat meal daily for 8 days measured on day 8; format: ADME, organism-based; set-up: dose 400 mg, time < 24 hr; details: plasma
[22] = Tmax in human at 100 mg administered with fat meal every 12 hrs for 8 days measured on day 8; format: ADME, organism-based; details: in vivo
Homo sapiens [23] = assay: Toxicity in human assessed as adverse effect at 200 mg administered every 12 hrs for 8 days; format: organism-based; details: in vivo
[24] = Cmax in fasted human at 400 mg administered as single dose; format: ADME, organism-based; set-up: dose 400 mg; details: in vivo
[25] = Terminal elimination half life in human at 200 mg administered with fat meal as single dose; format: ADME, organism-based; details: in vivo, read-out: beta t1/2 (converted)
[26] = AUC (0 to 12 hrs) in human at 200 mg administered with fat meal every 12 hrs for 8 days measured on day 8; format: ADME, organism-based; set-up: dose 200 mg, time < 12 hr; details: plasma
[27] = AUC (0 to infinity) in fasted human at 100 mg administered as single dose; format: ADME, organism-based; set-up: dose 100 mg, time infinity; details: plasma
[28] = Apparent oral clearance in human at 50 mg administered with fat meal every 12 hrs for 8 days measured on day 8; format: ADME, organism-based; details: in vivo
[29] = Tmax in fasted human at 200 mg administered as single dose; format: ADME, organism-based; details: in vivo
[30] = AUC (0 to infinity) in fasted human at 50 mg administered as single dose; format: ADME, organism-based; set-up: dose 50 mg, time infinity; details: plasma
[31] = Cmax in human at 100 mg administered with fat meal every 12 hrs for 8 days measured on day 8; format: ADME, organism-based; set-up: dose 100 mg; details: in vivo
[32] = AUC (0 to infinity) in fasted human at 400 mg administered as single dose; format: ADME, organism-based; set-up: dose 400 mg, time infinity; details: plasma
[33] = Tmax in fasted human at 400 mg administered with fat meal as single dose; format: ADME, organism-based; details: in vivo
[34] = Terminal elimination half life in human at 200 mg administered with fat meal every 12 hrs for 8 days measured on day 8; format: ADME, organism-based; details: in vivo, read-out: beta t1/2 (converted)
[35] = Terminal elimination half life in human at 200 mg administered with fat meal every 8 hrs for 8 days measured on day 1; format: ADME, organism-based; details: in vivo, read-out: beta t1/2 (converted)
Homo sapiens [36] = assay: Toxicity in human assessed as diarrhea at 50 to 200 mg administered as single dose; format: organism-based; details: in vivo
Homo sapiens [37] = assay: Toxicity in human assessed as changes in hematology at 50 to 200 mg administered as single dose; format: organism-based; details: in vivo
[38] = Terminal elimination half life in human at 400 mg administered with fat meal daily for 8 days measured on day 8; format: ADME, organism-based; details: in vivo, read-out: beta t1/2 (converted)
[39] = Apparent oral clearance in fasted human at 50 mg administered as single dose; format: ADME, organism-based; details: in vivo
[40] = Oral bioavailability in dog; format: ADME, organism-based, Canis lupus familiaris; details: in vivo
[41] = AUC (0 to infinity) in human at 400 mg administered with fat meal daily for 8 days measured on day 1; format: ADME, organism-based; set-up: dose 400 mg, time infinity; details: plasma
[42] = AUC (0 to infinity) in fasted human at 200 mg administered as single dose; format: ADME, organism-based; set-up: dose 200 mg, time infinity; details: plasma
Homo sapiens [43] = assay: Toxicity in human assessed as adverse effect at 200 mg administered every 8 hrs for 8 days; format: organism-based; details: in vivo
[44] = AUC (0 to infinity) in human at 200 mg administered with fat meal every 12 hrs for 8 days measured on day 1; format: ADME, organism-based; set-up: dose 200 mg, time infinity; details: plasma
Homo sapiens [45] = assay: Toxicity in human assessed as changes in continuous telemetry monitoring at 50 to 400 mg after sequential repeated administration for 8 days; format: organism-based; details: in vivo, 192 h
[46] = Plasma concentration in human at 200 mg administered with fat meal every 12 hrs for 8 days measured on day 1 after 12 hrs of first dose; format: ADME, organism-based
Homo sapiens [47] = assay: Toxicity in human assessed as dizziness at 100 mg administered every 12 hrs for 8 days; format: organism-based; details: in vivo
[48] = Cmax in fasted human at 200 mg administered as single dose; format: ADME, organism-based; set-up: dose 200 mg; details: in vivo
Homo sapiens [49] = assay: Toxicity in human assessed as headache at 100 mg administered every 12 hrs for 8 days; format: organism-based; details: in vivo
[50] = Terminal elimination half life in human at 200 mg administered with fat meal every 12 hrs for 8 days measured on day 1; format: ADME, organism-based; details: in vivo, read-out: beta t1/2 (converted)
Homo sapiens [51] = assay: Toxicity in human assessed as changes in 12-lead ECG at 50 to 400 mg after sequential repeated administration for 8 days; format: organism-based; details: in vivo, 192 h
[52] = Terminal elimination half life in fasted human at 400 mg administered as single dose; format: ADME, organism-based; details: in vivo, read-out: beta t1/2 (converted)
[53] = Tmax in human at 200 mg administered with fat meal every 8 hrs for 8 days measured on day 8; format: ADME, organism-based; details: in vivo
[54] = Tmax in human at 200 mg administered with fat meal every 12 hrs for 8 days measured on day 1; format: ADME, organism-based; details: in vivo
[55] = Tmax in human at 400 mg administered with fat meal daily for 8 days measured on day 1; format: ADME, organism-based; details: in vivo

## Cn1c(=O)c(C(=O)NCCO)c(O)c2ncc(Cc3ccc(F)cc3)cc21 [GSK-364735]
Homo sapiens [1]
  Activity: Non-toxic
[2]
  AUC(0-inf): 11000 ng·h/mL
Homo sapiens [3]
  Activity: Non-toxic
Rattus norvegicus
  QH: 5.8%
[4]
  Tmax: 3.75 h
[5]
  Tmax: 2.5 h
[6]
  Cmax: 1600 ng/mL
[7]
  Tmax: 1.5 h
[8]
  half-life: 5.8 h
[9]
  Tmax: 5.5 h
[10]
  Tmax: 4 h
Homo sapiens [11]
  Activity: 13%
[12]
  AUC(0-inf): 8500 ng·h/mL
[13]
  IC50: 42 nM
  IC90: 168 nM
[14]
  AUC(0-inf): 4000 ng·h/mL
[15]
  half-life: 4.2 h
[16]
  AUC at 12 h: 12000 ng·h/mL
[17]
  Cmax: 1500 ng/mL
Homo sapiens [18]
  Activity: 0.5 mg/dL
Canis familiaris
  QH: 27.8%
[19]
  Cmax: 2200 ng/mL
[20]
  Tmax: 4 h
Rhesus monkey
  QH: 4.6%
[21]
  AUC at 24 h: 12000 ng·h/mL
[22]
  Tmax: 3.75 h
Homo sapiens [23]
  Activity: 25%
[24]
  Cmax: 1300 ng/mL
[25]
  half-life: 6.5 h
[26]
  AUC at 12 h: 9600 ng·h/mL
[27]
  AUC(0-inf): 5200 ng·h/mL
[28]
  CL/F: 150 mL/min
[29]
  Tmax: 2.5 h
[30]
  AUC(0-inf): 3200 ng·h/mL
[31]
  Cmax: 2600 ng/mL
[32]
  AUC(0-inf): 6600 ng·h/mL
[33]
  Tmax: 7 h
[34]
  half-life: 2.8 h
[35]
  half-life: 3.7 h
Homo sapiens [36]
  Activity: 4%
Homo sapiens [37]
  Activity: Non-toxic
[38]
  half-life: 4.4 h
[39]
  CL/F: 267 mL/min
[40]
  bioavailability: 6%
[41]
  AUC(0-inf): 15000 ng·h/mL
[42]
  AUC(0-inf): 5500 ng·h/mL
Homo sapiens [43]
  Activity: 63%
[44]
  AUC(0-inf): 9200 ng·h/mL
Homo sapiens [45]
  Activity: Non-toxic
[46]
  concentration at 12 h: 230 ng/mL
Homo sapiens [47]
  Activity: 13%
[48]
  Cmax: 1100 ng/mL
Homo sapiens [49]
  Activity: 13%
[50]
  half-life: 3.9 h
Homo sapiens [51]
  Activity: Non-toxic
[52]
  half-life: 6.6 h
[53]
  Tmax: 4 h
[54]
  Tmax: 4 h
[55]
  Tmax: 5 h
